In the supplement of paper PMC8671470:

System: KCL-22
Conditions: 72 h
Method in brief: (§1)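 Fifteen myeloid leukaemia lines were incubated for 72 h at 37 °C with 5% CO2 across five tenfold doses from 1 to 10,000 nM, in duplicate. ATP luminescence was normalised to vehicle and to a positive control at 10 µM and fitted with a four-parameter log-logistic model. The IC50 came from these dose–response fits.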

SMILES	IC50 (cell viability) [µM]
C=C1C(=O)O[C@H](CCCCCCCC)[C@H]1C(=O)O [C75]	> 10
O=C(Cc1cccc(OC(F)(F)F)c1)Nc1ccc(CCCCc2nnc(NC(=O)Cc3ccccn3)s2)nn1 [CB-839]	0.822
O=NN(CCCl)C(=O)NCCCl [Carmustine]	> 10
O[C@H]1[C@H](O)[C@@H](O)CN2CC[C@H](O)[C@H]12 [Castanospermine]	> 10
O=C(/C=C/c1cccnc1)NCCCCC1CCN(C(=O)c2ccccc2)CC1 [Daporinad]	0.00331
N=C(N)c1ccc(N=NNc2ccc(C(=N)N)cc2)cc1 [Diminazene]	> 10
OCCN(CCO)c1nc(N2CCCCC2)c2nc(N(CCO)CCO)nc(N3CCCCC3)c2n1 [Dipyridamole]	> 10
Cc1cc(O)c2c(c1)C(=O)c1cc(O)cc(O)c1C2=O [Emodin]	> 10
N#Cc1ccc(C2CCCc3cncn32)cc1 (stereo not given) [Fadrozole]	> 10
Cc1nc(-c2ccc(OCC(C)C)c(C#N)c2)sc1C(=O)O [Febuxostat]	> 10

System: K-562
Conditions: 72 h
Method in brief: as §1

SMILES	IC50 (cell viability) [µM]
CN(C)CCNC(=O)c1cccn2c(=O)c3cc4ccccc4cc3nc12 [Bmh-21]	9.11
C=C1C(=O)O[C@H](CCCCCCCC)[C@H]1C(=O)O [C75]	> 10
O=C(Cc1cccc(OC(F)(F)F)c1)Nc1ccc(CCCCc2nnc(NC(=O)Cc3ccccn3)s2)nn1 [CB-839]	> 10
O=NN(CCCl)C(=O)NCCCl [Carmustine]	> 10
O[C@H]1[C@H](O)[C@@H](O)CN2CC[C@H](O)[C@H]12 [Castanospermine]	> 10
O=C(/C=C/c1cccnc1)NCCCCC1CCN(C(=O)c2ccccc2)CC1 [Daporinad]	0.00378
N=C(N)c1ccc(N=NNc2ccc(C(=N)N)cc2)cc1 [Diminazene]	> 10
OCCN(CCO)c1nc(N2CCCCC2)c2nc(N(CCO)CCO)nc(N3CCCCC3)c2n1 [Dipyridamole]	> 10
Cc1cc(O)c2c(c1)C(=O)c1cc(O)cc(O)c1C2=O [Emodin]	> 10
N#Cc1ccc(C2CCCc3cncn32)cc1 (stereo not given) [Fadrozole]	> 10
Cc1nc(-c2ccc(OCC(C)C)c(C#N)c2)sc1C(=O)O [Febuxostat]	> 10

System: KU-812
Conditions: 72 h
Method in brief: as §1

SMILES	IC50 (cell viability) [µM]
CN(C)CCNC(=O)c1cccn2c(=O)c3cc4ccccc4cc3nc12 [Bmh-21]	0.479
C=C1C(=O)O[C@H](CCCCCCCC)[C@H]1C(=O)O [C75]	> 10
O=C(Cc1cccc(OC(F)(F)F)c1)Nc1ccc(CCCCc2nnc(NC(=O)Cc3ccccn3)s2)nn1 [CB-839]	> 10
O=NN(CCCl)C(=O)NCCCl [Carmustine]	> 10
O[C@H]1[C@H](O)[C@@H](O)CN2CC[C@H](O)[C@H]12 [Castanospermine]	> 10
O=C(/C=C/c1cccnc1)NCCCCC1CCN(C(=O)c2ccccc2)CC1 [Daporinad]	0.00334
N=C(N)c1ccc(N=NNc2ccc(C(=N)N)cc2)cc1 [Diminazene]	> 10
OCCN(CCO)c1nc(N2CCCCC2)c2nc(N(CCO)CCO)nc(N3CCCCC3)c2n1 [Dipyridamole]	> 10
Cc1cc(O)c2c(c1)C(=O)c1cc(O)cc(O)c1C2=O [Emodin]	> 10
N#Cc1ccc(C2CCCc3cncn32)cc1 (stereo not given) [Fadrozole]	> 10
Cc1nc(-c2ccc(OCC(C)C)c(C#N)c2)sc1C(=O)O [Febuxostat]	> 10

System: KG-1
Conditions: 72 h
Method in brief: as §1

SMILES	IC50 (cell viability) [µM]
CN(C)CCNC(=O)c1cccn2c(=O)c3cc4ccccc4cc3nc12 [Bmh-21]	0.407
C=C1C(=O)O[C@H](CCCCCCCC)[C@H]1C(=O)O [C75]	> 10
O=C(Cc1cccc(OC(F)(F)F)c1)Nc1ccc(CCCCc2nnc(NC(=O)Cc3ccccn3)s2)nn1 [CB-839]	0.638
O=NN(CCCl)C(=O)NCCCl [Carmustine]	> 10
O[C@H]1[C@H](O)[C@@H](O)CN2CC[C@H](O)[C@H]12 [Castanospermine]	> 10
O=C(/C=C/c1cccnc1)NCCCCC1CCN(C(=O)c2ccccc2)CC1 [Daporinad]	0.00363
N=C(N)c1ccc(N=NNc2ccc(C(=N)N)cc2)cc1 [Diminazene]	> 10
OCCN(CCO)c1nc(N2CCCCC2)c2nc(N(CCO)CCO)nc(N3CCCCC3)c2n1 [Dipyridamole]	> 10
Cc1cc(O)c2c(c1)C(=O)c1cc(O)cc(O)c1C2=O [Emodin]	> 10
N#Cc1ccc(C2CCCc3cncn32)cc1 (stereo not given) [Fadrozole]	> 10
Cc1nc(-c2ccc(OCC(C)C)c(C#N)c2)sc1C(=O)O [Febuxostat]	> 10

System: NOMO-1
Conditions: 72 h
Method in brief: as §1

SMILES	IC50 (cell viability) [µM]
CN(C)CCNC(=O)c1cccn2c(=O)c3cc4ccccc4cc3nc12 [Bmh-21]	0.923
C=C1C(=O)O[C@H](CCCCCCCC)[C@H]1C(=O)O [C75]	> 10
O=C(Cc1cccc(OC(F)(F)F)c1)Nc1ccc(CCCCc2nnc(NC(=O)Cc3ccccn3)s2)nn1 [CB-839]	> 10
O=NN(CCCl)C(=O)NCCCl [Carmustine]	> 10
O[C@H]1[C@H](O)[C@@H](O)CN2CC[C@H](O)[C@H]12 [Castanospermine]	> 10
O=C(/C=C/c1cccnc1)NCCCCC1CCN(C(=O)c2ccccc2)CC1 [Daporinad]	< 0.001
N=C(N)c1ccc(N=NNc2ccc(C(=N)N)cc2)cc1 [Diminazene]	> 10
OCCN(CCO)c1nc(N2CCCCC2)c2nc(N(CCO)CCO)nc(N3CCCCC3)c2n1 [Dipyridamole]	> 10
Cc1cc(O)c2c(c1)C(=O)c1cc(O)cc(O)c1C2=O [Emodin]	> 10
N#Cc1ccc(C2CCCc3cncn32)cc1 (stereo not given) [Fadrozole]	> 10
Cc1nc(-c2ccc(OCC(C)C)c(C#N)c2)sc1C(=O)O [Febuxostat]	> 10

System: MV4-11
Conditions: 72 h
Method in brief: as §1

SMILES	IC50 (cell viability) [µM]
CN(C)CCNC(=O)c1cccn2c(=O)c3cc4ccccc4cc3nc12 [Bmh-21]	2.78
C=C1C(=O)O[C@H](CCCCCCCC)[C@H]1C(=O)O [C75]	> 10
O=C(Cc1cccc(OC(F)(F)F)c1)Nc1ccc(CCCCc2nnc(NC(=O)Cc3ccccn3)s2)nn1 [CB-839]	0.619
O=NN(CCCl)C(=O)NCCCl [Carmustine]	> 10
O[C@H]1[C@H](O)[C@@H](O)CN2CC[C@H](O)[C@H]12 [Castanospermine]	> 10
O=C(/C=C/c1cccnc1)NCCCCC1CCN(C(=O)c2ccccc2)CC1 [Daporinad]	< 0.001
N=C(N)c1ccc(N=NNc2ccc(C(=N)N)cc2)cc1 [Diminazene]	> 10
OCCN(CCO)c1nc(N2CCCCC2)c2nc(N(CCO)CCO)nc(N3CCCCC3)c2n1 [Dipyridamole]	8.82
Cc1cc(O)c2c(c1)C(=O)c1cc(O)cc(O)c1C2=O [Emodin]	> 10
N#Cc1ccc(C2CCCc3cncn32)cc1 (stereo not given) [Fadrozole]	> 10
Cc1nc(-c2ccc(OCC(C)C)c(C#N)c2)sc1C(=O)O [Febuxostat]	> 10
